Measured values from US6602487B1, “Methods and tests for producing and for inhibiting coronary artery vasospasms” (Dimera Incorporated, priority 1997, dated 2003).
Where “and” joins values, the source holds several entries; their conditions need not be identical. Identical values can stand only once. Entries after “also recorded” stand apart in the source; their conditions may differ. Like-named read-outs stand apart in the source and are kept apart here. Blank lines part the entries; values can stand above or below the compound they belong to.

How the values were obtained:
coronary arteries [1] = assay: Mechanical injury coronary vasospasm protocol (Protocol 2); format: in vivo, rhesus monkeys (Macaca mulatta); details: for Spasms/N: number of animals with vasospasm / number of animals; for ED50 (-log mol/liter): syringe concentration of the named vasoconstrictor causing 50% reduction of diameter from control, combined stimuli with 100 μmol/liter serotonin
Text: A separate mechanical injury, Protocol 2, was used in three additional monkeys (one male, two ovx). The injury step of Protocol 2, was deliberate mechanical stretching of the LAD or left main coronary artery with a 5F catheter.
In Protocol 2, steps 1-5 were the same as in Protocol 1. The remaining steps were as follows:
7. IC injection of angiotensin II (sequential doses to 10 μmol/liter);
8. Injury by stretching the coronary artery with a 5F catheter;
9. IC injection of serotonin (sequential doses to 1 mmol/liter);
10. IC injection 15 minutes later with 1 or 10 μmol/liter nitrendipine or Ro 40-5967 (mibefradil);
11. IC injection of […] (sequential doses to 10 μmol/liter); and
12. IC injection 15 minutes later with 1 or 10 μmol/liter nitrendipine or Ro 40-5967.
Putative coronary vasospasm stimuli were judged primarily by actions on large coronary artery diameters, analyzed as diameter of the most proximal focus of vasospasm at end-diastole from video-taped images recorded at 30 frames/s. We used the image analysis program Image Pro to measure the diameters from single frames acquired with an Imagraph frame grabber in a Pentium computer. We used the 3F catheter tip radio-opaque marker ring (1.0 mm) for calibration and determined minimal and maximal diameters just distal to the constriction. All responses to interventions were also X-ray imaged immediately (15 to 30 s after injection) and at exactly 3 minutes (and 15 minutes if there was vasospasm) after injection.

coronary arteries [2] = details: for coronary vasospasm on IC injection (no mechanical injury): serotonin 6.7 or 200 μmol/liter alone, U46619 6.7 to 2,000 nmol/liter alone, AII up to 200 nmol/liter, combination 6.7 μmol/liter serotonin and 67 nmol/liter U46619, triple combination with ET1; for EC50: read-out: estimated ET1 EC50, responsive ovx monkeys
coronary arteries [3] = assay: Drug-induced (S+U) coronary vasospasm in ovariectomized monkeys with E2 plus P or MPA implants; format: in vivo, rhesus monkeys (Macaca mulatta)
Method: Twelve rhesus monkeys (Macaca mulatta), aged 8 to 16 years and with weights of 5-7 kg, were ovariectomized at least 3 months prior to beginning of the study and selected randomly for one of two treatments. After documenting the lack of cardiovascular disease or previous exposure to atherogenic diet and after a normal physical examination (including blood chemistry), monkeys received subdermal sylastic implants containing 200 mg of E2. Two weeks later, sylastic implants containing either 400 mg of P or 400 mg of MPA were additionally implanted. All steroids were purchased from Steraloids (Wilton, N.H.). Both estrogen and progestin implants, providing sustained release steroids, remained in place through the catheterization study 6 weeks after beginning the study. Venous blood sample (5 ml) were collected just prior to beginning the study at weekly intervals for measurements of serum levels of E2, P, and MPA. Target levels of 80-160 pg/ml for E2, 4000-8000 pg/ml for P, and 400-800 pg/ml for MPA were based on levels that are effective by reproductive system indices in women and monkeys. Levels were measured in blood serum at catheterization by specific radio-immunoassays.
Angiography was carried out under isoflurane (0.75-1.25%) general anesthesia with 70% O2 and 30% N2O, and body temperature supported with a heating pad. After ketamine sedation (10 mg/kg) and endotracheal tube placement, both femoral arteries were cannulated for simultaneous measurement of systemic blood pressure and coronary catheterization. Intravenous anticoagulation with 1000 units of heparin and fluid replacement with 75-150 ml of lactated Ringer's solution, and if needed 10-50 ml of dextran, to reach a minimum control diastolic blood pressure of 60 mm Hg.
Coronary arteries (left anterior descending or left circumflex) of the monkeys were catheterized and agents injected as described above in Example 1.
Statistical analysis was carried out by Student's t-test (non-paired) or Chi-square, with the p<0.05 level accepted as significant.
All monkeys were treated with estradiol 17β via sylastic implants for the entire treatment period. P or MPA was added during the last 2 weeks as a second sylastic implant, to simulate the luteal phase (P) or hormone replacement therapy (MPA). All steroid implants were left in place, including during angiography. Steroid measurements were made by RIA on serum samples taken just before angiography. Indicates significant differences between P and MPA at p 0.05 (N=6 for each group).

[4] = system: coronary artery vascular muscle cells (VMC); assay: Subcellular Ca2+ and PKC localization and contraction of coronary VMC stimulated with serotonin plus U46619; format: cell-based, rhesus monkeys
Text: Single VMCs from the left anterior descending, circumflex, and right coronary arteries of adult rhesus monkeys were isolated and studied both as freshly dispersed and as primary cultures. The short-term primary cultured cells (never passaged) maintain the characteristics of the source tissue for 2 3 weeks, including contraction, relaxation, receptors, and membrane electrical properties. VMCs were dissociated with collagenase and protease enzymes in a potassium glutamate solution (KG) that prevent loading with Na^+, Ca^2+, or Cl^− and results in a high proportion of viable, contracting cells (Self, D. A., et al., J. Vasc. Res. 31:359-366 (1994); Rusch., N. J., et al., Physiology and Pathophysiology of the Heart, 999-1010 (1995)). The cells prepared for culture were seeded at low density in cardiovascular culture solution for mammals, fifth generation (CV5M) on glass coverslips to facilitate selection of individual cells. VMC were used for experiments 7-14 days after attaching to coverslips.
Freshly dispersed or primary cultured VMCs on glass coverslips were placed in a chamber of laminar flow design and observed with a Zeiss Plan Neofluar 25×/0.80 water immersion objective. Ionic solution for mammals version 2 (ISM2) was continuously pumped through the chamber (at 1 ml/minute) to provide continuous equilibration and washout of drugs. After a 15 minutes equilibration period, VMC were loaded for 15 minutes at room temperature with 3 μM fluo 3 (Molecular Probes, Inc.) for sensing Ca^2− and for 10 minutes with […] hypericin (LC Laboratories) for reporting PKC. Individual VMC were stimulated by adding 20 μl of 10 μM serotonin plus 100 nM U46619 over the individual cell. After 15 seconds under no-flow conditions, continuous flow of ISM2 was reinstated and a chamber volume of approximately 300 μl was maintained. Fluorescent images were taken at 1, 2, 5, 10, 15, 20 and 30 minutes after stimulation for Ca^2+ and at 3, 4, 9, 16, 21 and 31 minutes for PKC to evaluate subcellular distribution of these signals, and to determine VMC contraction.
ISM2 contains (in mM): 100 NaCl, 4 NaHCO3, 0.5 NaH2PO4, 4.7 KCl, 1.8 CaCl2, 0.41 […], 50 HEPES (pH 7.37), and 5.5 dextrose, KG solution consists of (in mM); 140 K-glutamate, 16 NaHCO3, 0.5 NaH2PO4, 30 HEPES, and 16.5 dextrose at pH 7.3. CVSM consists of. 4.0 mM L-glutamine, 10 μg/ml ciprofloxacin (Miles Pentex/Bayer Corporation), 50 mM HEPES (pH 7.3), and 16 mM NaHCO3 dissolved in 85% MEM-Earle's'salts and 15% horse serum. Phenol red, known to have estrogenic activity, was omitted from all solutions.
As discussed above, the monkeys were implanted with subdermal sylastic tubing containing estrogen (E) progesterone (P) or MPA. The first step in each of the three groups was to implant sylastic tubing containing E. Two weeks later, either P or MPA were additionally implanted and maintained for another 4 weeks (6 weeks total). In the withdrawal (W) group, the E tube was withdrawn, and no tubes were implanted for the last 4 weeks.

[5] = angiographic example, one MPA monkey
[6] = minimum, 5-20 minutes after IC S + U

Compound: Angiotensin II: vasoconstrictor angiotensin-II (DRVYIHPF; Angiotensin-2; UniProt P01019 25-32, looked up)
EC50 (-log mol/liter) (coronary arteries [1]; Protocol 2, estimated actual coronary artery blood concentration based on 15-fold dilution): 6.8 -log mol/liter
Spasms/N (coronary arteries [1]; Protocol 2): 0/3
ED50 (-log mol/liter) (coronary arteries [1]; Protocol 2): 5.5 -log mol/liter
systemic blood pressure (coronary arteries [2]; Angiotensin II up to 200 nmol/liter IC): did increase systemic blood pressure
coronary vasospasm on IC injection (no mechanical injury) (coronary arteries [2]): did not cause vasospasm

Compound: CC(=O)OCC[N+](C)(C)C [ACh, acetylcholine]
time to vasodilation (coronary arteries [2]; 67 nmol/liter ACh IC, all monkeys): ≤ 15 s

Compound: CC(=O)O[C@]1(C(C)=O)CC[C@H]2[C@@H]3C[C@H](C)C4=CC(=O)CC[C@]4(C)[C@H]3CC[C@@]21C [MPA, medroxyprogesterone acetate]
diameter in dilator response to low dose ACh (coronary arteries [3]; 0.18 μg ACh IC): 1.21±0.19 mm
number of S+U challenges responded to with vasospasm (mean) (coronary arteries [3]; E2+MPA treated monkeys): 2.7±0.7
number of S+U challenges responded to with vasospasm (range) (coronary arteries [3]; E2+MPA treated monkeys): 1-5
Vasospasms (incidence) (coronary arteries [3]; S+U IC challenges, E2 implant plus P or MPA implant, N=6 per group): 6 of 6 and 6/6*
reduction of minimum (φ) from controls after S+U (coronary arteries [3]; S+U stimulation): 87%
constriction after IC S+U (coronary arteries [3]; [5]): 92%
time constriction was sustained (coronary arteries [3]; [5]): 15 min
blood pressure nadir (coronary arteries [3]; angiographic example, one MPA monkey after S+U): 38/20
Control DBP in mm Hg (coronary arteries [3]; before S + U): 61 ± 5 mm Hg
Control Heart rate in bpm (coronary arteries [3]; before S + U): 134 ± 26 bpm
S + U (φ) minimum (coronary arteries [3]; minimum diameter 3 to 5 minutes after IC S + U): 0.15±0.04 mm
S + U stim DBP in min Hg (coronary arteries [3]; [6]): 26 ± 8 min Hg
S + U stim SBP in mm Hg (coronary arteries [3]; [6]): 45 ± 11 mm Hg
S + U stim heart rate in bpm (coronary arteries [3]; [6]): 69 ± 24 bpm
Control (φ) in mm (coronary arteries [3]; proximal LAD or left circumflex diameter under control conditions, E2+P or E2+MPA group): 1.15±0.10 mm
whole cell Ca2+ (fluo 3) fluorescence after stimulation ([4]; VMC from treated monkeys, 10 μM serotonin plus 100 nM U46619, FIG. 3): significantly increased over control averaged over the whole cell at 1 minute and every subsequent time point
peripheral-to-central Ca2+ ratio after stimulation ([4]; VMC from treated monkeys, 10 μM serotonin plus 100 nM U46619, FIG. 4): significantly decreased peripheral-to-central Ca^2+ ratio at 10 minutes and all subsequent times
PKC signal after stimulation ([4]; VMC from treated monkeys, 10 μM serotonin plus 100 nM U46619, FIG. 5): significantly above the 0-min control at 3 minutes and all subsequent time points
peripheral-to-central PKC ratio after stimulation ([4]; VMC from treated monkeys, 10 μM serotonin plus 100 nM U46619, FIG. 6): decreased significantly
VMC contractions (cell width) after stimulation ([4]; VMC from treated monkeys, 10 μM serotonin plus 100 nM U46619, FIG. 7): significantly different from 0-min controls at 3 minutes and all subsequent times
duration of activation by serotonin and U46619 ([4]; based on comparisons of contractions, protocol limit 30 minutes): > 30 min

Compound: CC[C@H](C)[C@H](NC(=O)[C@H](CC(=O)O)NC(=O)[C@H](CC(C)C)NC(=O)[C@H](Cc1c[nH]cn1)NC(=O)[C@@H]1CSSC[C@H](N)C(=O)N[C@@H](CO)C(=O)N[C@H]2CSSC[C@H](NC(=O)[C@H](CCC(=O)O)NC(=O)[C@H](CCCCN)NC(=O)[C@H](CC(=O)O)NC(=O)[C@H](CCSC)NC(=O)[C@H](CC(C)C)NC(=O)[C@H](CO)NC(=O)[C@H](CO)NC2=O)C(=O)N[C@@H](C(C)C)C(=O)N[C@@H](Cc2ccc(O)cc2)C(=O)N[C@@H](Cc2ccccc2)C(=O)N1)C(=O)N[C@H](C(=O)N[C@@H](Cc1c[nH]c2ccccc12)C(=O)O)[C@@H](C)CC [Endothelin 1]
Spasms/N (coronary arteries [1]; Protocol 2): 0/3
ED50 (-log mol/liter) (coronary arteries [1]; Protocol 2): 8.5 -log mol/liter
EC50 (coronary arteries [2]; with 6.7 μmol/liter serotonin): 0.067 nM
EC50 (coronary arteries [2]; without serotonin): 0.2 nM

EC50 (-log mol/liter) (coronary arteries [2]; Protocol 1, estimated actual coronary artery blood concentration based on 15-fold dilution): 6.8 -log mol/liter
Compound: CCCCC[C@H](O)/C=C/[C@@H]1[C@@H](C/C=C\CCCC(=O)O)[C@H]2CO[C@@H]1C2 [U46619]
coronary vasospasm with mechanical injury (5F catheter stretch) (coronary arteries [1]; serotonin 67 μmol/liter IC, U46619 67 nmol/liter or 1 nmol/liter, ET1 ≦10 nmol/liter, AII ≦10 μmol/liter): caused another vasospasm; also recorded: Vasospasm was stimulated
Spasms/N (coronary arteries [2]; Protocol 1, number of animals with vasospasm / number of animals): 0/8
ED50 (-log mol/liter) (coronary arteries [2]; Protocol 1, syringe concentration of the named vasoconstrictor causing 50% reduction of diameter from control, combined stimuli with 100 μmol/liter serotonin): 5.5 -log mol/liter
vasoactivity / constriction of arteries on IC injection of single agent (coronary arteries [2]; serotonin 67 nmol/liter to 667 μmol/liter, U46619 6.7 to 2,000 nmol/liter): caused constriction of arteries in all 10 monkeys
coronary vasospasm on IC injection (no mechanical injury) (coronary arteries [2]): vasospasm could not be found
